From DBAASP
In brackets after ≈: the same amount, converted by molar mass.

Columns and labels:
Assay in all cases: ≥ marks a high value that may be exact or a test limit, other limits are often not marked, values filed in µg/mL are converted to µM
[1] = system: Staphylococcus aureus ATCC 25923
[2] = system: Escherichia coli ATCC 25726
[3] = system: Candida albicans ATCC 2002
[4] = system: Escherichia coli ATCC 25922
[5] = system: Pseudomonas aeruginosa CMCCB 10104
[6] = system: Staphylococcus aureus ATCC 43300
[7] = system: Escherichia coli ML-35p
[8] = system: Staphylococcus aureus ATCC 2592
[9] = system: Bacillus subtilis
[10] = system: Pseudomonas aeruginosa ATCC 27853
[11] = system: Pseudomonas aeruginosa PAO1

SMILES | MIC [1] | MIC [2] | MIC [3] | MIC [4] | MIC [5] | also measured
CC[C@H](C)[C@H](N)C(=O)N[C@@H](CC(C)C)C(=O)NCC(=O)N[C@@H](CCCCN)C(=O)N[C@@H](CC(C)C)C(=O)N[C@@H](CC(C)C)C(=O)N[C@@H](CO)C(=O)N[C@H](C(=O)N[C@@H](C)C(=O)N[C@@H](C)C(=O)N[C@@H](CCCCN)C(=O)N[C@@H](CC(C)C)C(=O)N[C@@H](CC(C)C)C(=O)N[C@@H](CO)C(=O)N[C@@H](CCCCN)C(=O)N[C@@H](CC(C)C)C(N)=O)[C@@H](C)O [ILGKLLSTAAKLLSKL] | 2 µM (≈ 3.34 µg/mL) | 16 µM (≈ 26.7 µg/mL) |  |  |  | 
CC[C@H](C)[C@H](NC(=O)[C@H](CC(N)=O)NC(=O)[C@@H](NC(=O)[C@H](C)N)[C@@H](C)O)C(=O)N1CCC[C@H]1C(=O)N[C@@H](Cc1ccccc1)C(=O)N[C@@H](CCCCN)C(=O)N[C@H](C(=O)N[C@@H](Cc1cnc[nH]1)C(=O)N[C@@H](Cc1ccccc1)C(=O)N[C@@H](CCCN=C(N)N)C(=O)N[C@H]1CSSC[C@@H](C(=O)O)NC(=O)[C@H](Cc2ccccc2)NC(=O)[C@H](C)NC(=O)[C@H](C)NC(=O)[C@H](CCCCN)NC1=O)C(C)C [ATNIPFKVHFRCKAAFC] | > 24.1 µM |  | 24.1 µM (≈ 47 µg/mL) | 12 µM (≈ 23.5 µg/mL) | 24.1 µM (≈ 47 µg/mL) | 
CC[C@H](C)[C@H](NC(=O)CNC(=O)[C@H](CS)NC(=O)[C@H](Cc1ccccc1)NC(=O)[C@H](CCCCN)NC(=O)[C@H](CCCN=C(N)N)NC(=O)[C@@H]1CCCN1C(=O)[C@H](CCCN=C(N)N)NC(=O)[C@H](CC(=O)O)NC(=O)[C@@H]1CCCN1C(=O)[C@H](C)N)C(=O)N[C@@H](CC(C)C)C(=O)NCC(=O)O [APDRPRKFCGILG] | > 140 µM |  | ≥ 140 µM | > 140 µM | ≥ 140 µM | 
CC[C@H](C)[C@H](NC(=O)[C@H](CC(C)C)NC(=O)[C@H](CCC(N)=O)NC(=O)[C@@H](NC(=O)[C@H](C)NC(=O)CNC(=O)[C@H](CCCCN)NC(=O)[C@@H](NC(=O)[C@H](CC(C)C)NC(=O)[C@@H](NC(=O)[C@H](Cc1ccccc1)NC(=O)[C@@H](NC(=O)CN)C(C)C)[C@@H](C)O)[C@@H](C)CC)[C@@H](C)O)C(=O)NCC(=O)N[C@@H](CCCCN)C(=O)N[C@H](C(=O)N[C@@H](CC(C)C)C(=O)NCC(=O)N[C@@H](CCCCN)C(=O)N[C@@H](CCC(=O)O)C(=O)N[C@@H](CC(C)C)C(=O)NCC(=O)N[C@@H](CCCCN)C(=O)N[C@H](C(=O)NCC(=O)N[C@@H](CC(C)C)C(=O)N[C@@H](CCC(=O)O)C(=O)N[C@H](C(=O)N[C@@H](CCSC)C(=O)N[C@@H](C)C(=O)N[C@H]1CSSC[C@@H](C(=O)O)NC(=O)[C@H](CCC(N)=O)NC(=O)[C@H](CCCCN)NC(=O)[C@H]([C@@H](C)O)NC(=O)[C@H]([C@@H](C)CC)NC(=O)[C@H](CCCCN)NC1=O)[C@@H](C)CC)[C@@H](C)O)[C@@H](C)O [GVFTLIKGATQLIGKTLGKELGKTGLEIMACKITKQC] | 4.06 µM (≈ 15.8 µg/mL) |  | 2.03 µM (≈ 7.9 µg/mL) | 4.06 µM (≈ 15.8 µg/mL) | 4.06 µM (≈ 15.8 µg/mL) | 
CC[C@H](C)[C@H](NC(=O)[C@H](C)NC(=O)[C@H](CCSC)NC(=O)[C@@H](NC(=O)[C@H](CCCCN)NC(=O)[C@@H](NC(=O)[C@H](CCCCN)NC(=O)[C@H](CC(=O)O)NC(=O)[C@H](CCCN=C(N)N)NC(=O)[C@@H](NC(=O)[C@@H](N)CO)[C@@H](C)CC)[C@@H](C)CC)[C@@H](C)O)C(=O)N[C@@H](CC(=O)O)C(=O)N[C@@H](CC(C)C)C(=O)N[C@@H](C)C(=O)N[C@@H](CCCCN)C(=O)N[C@@H](CO)C(=O)N[C@@H](C)C(=O)NCC(=O)N[C@H](C(=O)NCC(=O)N[C@H](C(=O)N[C@@H](CC(C)C)C(=O)N[C@@H](CCCCN)C(=O)N[C@H](C(=O)N[C@@H](CC(C)C)C(=O)N[C@H](C(=O)N[C@H]1CSSC[C@@H](C(=O)O)NC(=O)[C@H](CO)NC(=O)[C@H](CCCCN)NC(=O)[C@H](CC(=O)O)NC(=O)[C@H](CC(C)C)NC(=O)[C@H](CCCCN)NC1=O)[C@@H](C)CC)[C@@H](C)O)C(C)C)[C@@H](C)O [SIRDKIKTMAIDLAKSAGTGVLKTLICKLDKSC] |  |  | 2.84 µM (≈ 9.99 µg/mL) |  |  | MIC [6]: 4.26 µM (≈ 15 µg/mL); MIC [7]: 2.84 µM (≈ 9.99 µg/mL); MIC [8]: 2.84 µM (≈ 9.99 µg/mL); MIC [9]: 11.4 µM (≈ 40 µg/mL); MIC [10]: 1.42 µM (≈ 5 µg/mL); MIC [11]: 1.42 µM (≈ 5 µg/mL)
CC[C@H](C)[C@H](NC(=O)[C@H](CC(N)=O)NC(=O)[C@H](Cc1ccccc1)NC(=O)[C@H](CCSC)NC(=O)[C@H](CC(N)=O)NC(=O)[C@@H](N)CCC(=O)O)C(=O)N[C@@H](CCCCN)C(=O)N[C@@H](CO)C(=O)N[C@@H](CO)C(=O)N[C@H](C(=O)N[C@@H](CCC(=O)O)C(=O)N[C@@H](CO)C(=O)N[C@@H](CC(=O)O)C(=O)N[C@@H](CO)C(=O)N[C@@H](Cc1ccccc1)C(=O)N[C@@H](Cc1c[nH]c2ccccc12)C(=O)NCC(=O)O)C(C)C [ENMFNIKSSVESDSFWG] | > 101 µM |  | ≥ 101 µM | > 101 µM | ≥ 101 µM | 
CSCC[C@H](NC(=O)[C@H](CCCCN)NC(=O)[C@@H](NC(=O)[C@H](CCC(=O)O)NC(=O)[C@H](CCCCN)NC(=O)[C@H](CCCCN)NC(=O)[C@H](CCCCN)NC(=O)[C@H](CCCCN)NC(=O)[C@H](CC(C)C)NC(=O)[C@H](CCSC)NC(=O)[C@@H](N)CCC(=O)O)C(C)C)C(=O)N[C@@H](CCC(=O)O)C(=O)N[C@@H](CCCN=C(N)N)C(=O)N[C@@H](CCCCN)C(=O)N[C@H](C(=O)O)[C@@H](C)O [EMLKKKKEVKMERKT] | > 105 µM |  | ≥ 105 µM | > 105 µM | ≥ 105 µM | 
CC[C@H](C)[C@H](NC(=O)[C@H](C)NC(=O)[C@@H](NC(=O)[C@@H](NC(=O)[C@H](CCCCN)NC(=O)CNC(=O)[C@H](CCCCN)NC(=O)[C@H](CC(=O)O)NC(=O)[C@H](CCCN=C(N)N)NC(=O)[C@@H](NC(=O)[C@@H](N)CO)[C@@H](C)CC)[C@@H](C)O)[C@@H](C)CC)C(=O)N[C@@H](CC(=O)O)C(=O)N[C@@H](CC(C)C)C(=O)N[C@@H](C)C(=O)N[C@@H](CCCCN)C(=O)N[C@@H](CO)C(=O)N[C@@H](C)C(=O)NCC(=O)N[C@H](C(=O)NCC(=O)N[C@H](C(=O)N[C@@H](CC(C)C)C(=O)N[C@@H](CCCCN)C(=O)N[C@H](C(=O)N[C@@H](CC(C)C)C(=O)N[C@@H](CCSC)C(=O)N[C@H]1CSSC[C@@H](C(=O)O)NC(=O)[C@H](CO)NC(=O)[C@H](CCCCN)NC(=O)[C@H](CC(=O)O)NC(=O)[C@H](CC(C)C)NC(=O)[C@H](CCCCN)NC1=O)[C@@H](C)O)C(C)C)[C@@H](C)O [SIRDKGKTIAIDLAKSAGTGVLKTLMCKLDKSC] |  |  | 2.89 µM (≈ 9.99 µg/mL) |  |  | MIC [6]: 2.89 µM (≈ 9.99 µg/mL); MIC [7]: 2.89 µM (≈ 9.99 µg/mL); MIC [8]: 2.89 µM (≈ 9.99 µg/mL); MIC [9]: 8.66 µM (≈ 30 µg/mL); MIC [10]: 0.721 µM (≈ 2.5 µg/mL); MIC [11]: 0.721 µM (≈ 2.5 µg/mL)

Further compounds by falling MIC [1], results first:

MIC [1] | MIC [2] | MIC [3] | MIC [4] | MIC [5] | SMILES | also measured
40 µM (≈ 116 µg/mL) | ≥ 80 µM |  |  |  | CC[C@H](C)[C@H](N)C(=O)N[C@H](C(=O)N[C@H](C(=O)N1CCC[C@H]1C(=O)N1CCC[C@H]1C(=O)N[C@H](C(=O)N[C@H](C(=O)N[C@@H](CCCCN)C(=O)N[C@@H](CC(=O)O)C(=O)N[C@H](C(=O)N[C@@H](CC(C)C)C(=O)N[C@@H](CCCCN)C(=O)N[C@@H](CCCCN)C(=O)N[C@@H](Cc1ccccc1)C(=O)N[C@@H](Cc1ccccc1)C(=O)N[C@@H](CCCCN)C(=O)NCC(=O)NCC(=O)N[C@H](C(=O)N[C@@H](C)C(=O)NCC(=O)N[C@H](C(=O)N[C@@H](CCSC)C(=O)NCC(=O)N[C@@H](CCCCN)C(=O)N[C@@H](CO)C(=O)N[C@@H](CCC(N)=O)C(=O)O)C(C)C)[C@@H](C)CC)[C@@H](C)O)[C@@H](C)CC)[C@@H](C)CC)[C@@H](C)CC)[C@@H](C)O [ITIPPIIKDTLKKFFKGGIAGVMGKSQ] | 
31.6 µM (≈ 62.4 µg/mL) | 15.7 µM (≈ 31 µg/mL) |  |  |  | CC[C@H](C)[C@H](NC(=O)[C@H](CCCCN)NC(=O)[C@H](CCCCN)NC(=O)CNC(=O)[C@H](C)NC(=O)CNC(=O)[C@H](Cc1ccccc1)NC(=O)[C@@H](NC(=O)[C@H](CO)NC(=O)CNC(=O)[C@H](CC(C)C)NC(=O)[C@H](CC(C)C)NC(=O)CN)[C@@H](C)CC)C(=O)N[C@@H](C)C(=O)N[C@H]1CSSC[C@@H](C(=O)O)NC(=O)[C@H](CC(C)C)NC(=O)CNC(=O)[C@H](CO)NC(=O)[C@H](CC(C)C)NC(=O)[C@H](C)NC1=O [GLLGSIFGAGKKIACALSGLC] | 
3.2 µM (≈ 7.99 µg/mL) | 25 µM (≈ 62.5 µg/mL) |  |  |  | CC[C@H](C)[C@@H]1NC(=O)[C@H](C)NC(=O)[C@@H](NC(=O)[C@H](Cc2ccc(O)cc2)NC(=O)[C@H](C)NC(=O)[C@H](C)NC(=O)[C@@H]2CCCN2C(=O)[C@@H](NC(=O)[C@@H](NC(=O)[C@H](CCCCN)NC(=O)[C@@H](NC(=O)[C@H](C)NC(=O)[C@H](C)NC(=O)[C@H](CCCCN)NC(=O)[C@@H](NC(=O)[C@H](CC(C)C)NC(=O)CNC(=O)CNC(=O)[C@H](CCSC)NC(=O)[C@@H](N)Cc2ccccc2)[C@@H](C)CC)[C@@H](C)O)[C@@H](C)CC)C(C)C)CSSC[C@@H](C(=O)O)NC(=O)[C@H](CCCCN)NC(=O)[C@H](CCCCN)NC(=O)[C@H]([C@@H](C)O)NC1=O [FMGGLIKAATKIVPAAYCAITKKC] | 
